Measurements: ChEMBL document CHEMBL1134090, “Esters of 2-(1-hydroxyalkyl)-1,4-dihydroxy-9,10-anthraquinones with melphalan as multifunctional anticancer agents” (Bioorg Med Chem Lett, 2001)
≈ marks a conversion by molar mass, not a printed value.

Tests used:
[1] = Cytotoxicity against L-1210 cells; type: cell-based, L1210; details: mouse, read-out: ED50 (the source's name)
Mus musculus = organism: Mus musculus; test: Ratio of number of mice that survived after 50 days among eight mice tested; type: functional
[2] = Antitumor activity against S-180 cells after i.p. administration in mice up to 7 days at a dose of 16 umol/kg; type: functional, Mus musculus

Molecule CCC(OC(=O)C(Cc1ccc(N(CCCl)CCCl)cc1)NC=O)c1cc(O)c2c(c1O)C(=O)c1ccccc1C2=O (stereo not drawn) has a CC50 [1] of 0.2 µg/mL (≈ 0.326 µM), a Survival ratio (Mus musculus) of 3 and a T/C [2] of 245%.

CCCCC(OC(=O)C(Cc1ccc(N(CCCl)CCCl)cc1)NC=O)c1cc(O)c2c(c1O)C(=O)c1ccccc1C2=O (stereo not drawn) showed a CC50 [1] of 0.4 µg/mL (≈ 0.623 µM), a Survival ratio (Mus musculus) of 2 and a T/C [2] of 230%.

With CCCCCC(O)c1cc(O)c2c(c1O)C(=O)c1ccccc1C2=O (stereo not drawn) the CC50 [1] was 58 µg/mL (≈ 170 µM) and the T/C [2] was 108%.

Work on CCCC(O)c1cc(O)c2c(c1O)C(=O)c1ccccc1C2=O (stereo not drawn) yielded a CC50 [1] of 10.2 µg/mL (≈ 32.7 µM) and a T/C [2] of 125%.

With CCCCC(O)c1cc(O)c2c(c1O)C(=O)c1ccccc1C2=O (stereo not drawn) the CC50 [1] was 23.7 µg/mL (≈ 72.6 µM) and the T/C [2] was 110%.

CCC(O)c1cc(O)c2c(c1O)C(=O)c1ccccc1C2=O (stereo not drawn) showed a CC50 [1] of 7.2 µg/mL (≈ 24.1 µM) and a T/C [2] of 135%.

For O=CNC(Cc1ccc(N(CCCl)CCCl)cc1)C(=O)OCc1cc(O)c2c(c1O)C(=O)c1ccccc1C2=O (stereo not drawn), the CC50 [1] was 0.086 µg/mL (≈ 0.147 µM), the Survival ratio (Mus musculus) was 3 and the T/C [2] was 265%.

With O=C1c2ccccc2C(=O)c2c(O)c(CO)cc(O)c21 the CC50 [1] was 15 µg/mL (≈ 55.5 µM) and the T/C [2] was 125%.

CC(O)c1cc(O)c2c(c1O)C(=O)c1ccccc1C2=O (stereo not drawn) showed a CC50 [1] of 1.9 µg/mL (≈ 6.68 µM) and a T/C [2] of 139%.

CCCCCC(OC(=O)C(Cc1ccc(N(CCCl)CCCl)cc1)NC=O)c1cc(O)c2c(c1O)C(=O)c1ccccc1C2=O (stereo not drawn) showed a CC50 [1] of 3.1 µg/mL (≈ 4.73 µM), a Survival ratio (Mus musculus) of 1 and a T/C [2] of 230%.

CCCCCCC(O)c1cc(O)c2c(c1O)C(=O)c1ccccc1C2=O (stereo not drawn) showed a CC50 [1] of 60 µg/mL (≈ 169 µM) and a T/C [2] of 115%.

For CCCCCCCC(O)c1cc(O)c2c(c1O)C(=O)c1ccccc1C2=O (stereo not drawn), the CC50 [1] was 80 µg/mL (≈ 217 µM) and the T/C [2] was 103%.

CC(OC(=O)C(Cc1ccc(N(CCCl)CCCl)cc1)NC=O)c1cc(O)c2c(c1O)C(=O)c1ccccc1C2=O (stereo not drawn) gave a CC50 [1] of 0.12 µg/mL (≈ 0.2 µM), a Survival ratio (Mus musculus) of 6 and a T/C [2] of 272%.

CCCC(OC(=O)C(Cc1ccc(N(CCCl)CCCl)cc1)NC=O)c1cc(O)c2c(c1O)C(=O)c1ccccc1C2=O (stereo not drawn) showed a CC50 [1] of 0.97 µg/mL (≈ 1.55 µM), a Survival ratio (Mus musculus) of 3 and a T/C [2] of 240%.

Molecule CCCCCCC(OC(=O)C(Cc1ccc(N(CCCl)CCCl)cc1)NC=O)c1cc(O)c2c(c1O)C(=O)c1ccccc1C2=O (stereo not drawn) has a CC50 [1] of 4.5 µg/mL (≈ 6.72 µM), a Survival ratio (Mus musculus) of 0 and a T/C [2] of 210%.

CCCCCCCC(OC(=O)C(Cc1ccc(N(CCCl)CCCl)cc1)NC=O)c1cc(O)c2c(c1O)C(=O)c1ccccc1C2=O (stereo not drawn) gave a CC50 [1] of 5.9 µg/mL (≈ 8.63 µM), a Survival ratio (Mus musculus) of 0 and a T/C [2] of 205%.

Work on N[C@@H](Cc1ccc(N(CCCl)CCCl)cc1)C(=O)O [MELPHALAN] yielded a CC50 [1] of 0.89 µg/mL (≈ 2.92 µM), a Survival ratio (Mus musculus) of 3 and a T/C [2] of 225%.
